Counter-ions that a name gives are not always drawn.

One may read the IC50 as the concentration at which inhibition is half-maximal.

Chain of adenosine kinase (P55263 whole entry): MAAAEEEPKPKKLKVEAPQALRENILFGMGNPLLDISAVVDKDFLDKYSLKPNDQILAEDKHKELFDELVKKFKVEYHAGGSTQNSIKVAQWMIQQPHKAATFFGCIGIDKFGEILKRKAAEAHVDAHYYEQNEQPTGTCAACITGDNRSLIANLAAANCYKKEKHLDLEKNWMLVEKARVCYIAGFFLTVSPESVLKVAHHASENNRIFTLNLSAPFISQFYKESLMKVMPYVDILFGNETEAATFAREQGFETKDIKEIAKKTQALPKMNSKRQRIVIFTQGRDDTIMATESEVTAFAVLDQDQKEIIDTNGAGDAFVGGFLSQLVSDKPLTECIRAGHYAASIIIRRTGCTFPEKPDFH

The first experiment deals with male CF1 mice (hot plate analgesia). Kind of experiment: Mouse hot plate assay (hot plate test of analgesia). It is filed as in vivo. As to conditions: 30 μmol/kg i.p., thirty minutes after pretreatment, 55° C. hot plate; vehicle alone 72.76±10.51 seconds. How it is done:
The compounds of the invention were tested in vivo in the hot plate test of analgesia in mammals such as mice. […] Mouse Hot Plate Assay […] At the end of the pretreatment period, the mice are placed in an Omnitech Electronics Automated 16 Animal Hot Plate Analgesia Monitor (Columbus, Ohio; Model […]) in individual, 9.8×7.2×15.3 cm (l×w×h) plastic enclosures on top of a copper plate warmed to 55° C. […] sensors located near the top of each enclosure record beam crossings that occur as the mice jump off of the heated surface. Latency times for each jump are automatically recorded, and latency to both the first and tenth jumps are used for data analysis.
For orientation: Thermal pain tests record how soon the animal reacts.
Regarding `COCCN(C)c1ccc(-c2nc3ncnc(N)c3c(-c3cc(Br)cs3)c2-c2ccc(OC)c(OC)c2)cc1.Cl` [Example 19, 4-amino-5-(4-bromothiophen-2-yl)-6-(3,4-dimethoxyphenyl)-7-(4-(N-methyl-N-(2-methoxyethyl)amino)phenyl)pyrido [2,3-d]pyrimidine hydrochloride], the “latency to 10th jump” value was 142.13 s.

`CN(C)c1ccc(-c2nc3ncnc(N)c3c(-c3ccccc3)c2-c2ccccc2)cc1.Cl.Cl` [Example 27, 4-amino-5,6-diphenyl-7-(4-dimethylaminophenyl)pyrido [2,3-d]pyrimidine dihydrochloride]: the “latency to 10th jump” value was determined as 154.86 s.

A further experiment concerns the target adenosine kinase (Homo sapiens, UniProt P55263). Kind of experiment: Inhibition of adenosine kinase in vitro. As to conditions: Table 1, read-out: IC50, Inhibition of Adenosine Kinase by Representative Compounds of the Invention. The format is biochemical. The source says:
The adenosine kinase to be inhibited can be located in vitro, in situ or in vivo. Where the adenosine kinase is located in vitro, adenosine kinase is contacted with the inhibitor compound, typically by adding the compound to an aqueous solution containing the enzyme, radiolabeled substrate adenosine, magnesium chloride and ATP. The enzyme can exist in intact cells or in isolated subcellular fractions containing the enzyme. The enzyme is then maintained in the presence of the inhibitor for a period of time and under suitable physiological conditions. Means for determining maintenance times are well known in the art and depend inter alia on the concentrations of enzyme and the physiological conditions. Suitable physiological conditions are those necessary to maintain adenosine kinase viability and include temperature, acidity, tonicity and the like. Inhibition of adenosine kinase can be performed, by example, according to standard procedures well known in the art (Yamada, et al., Comp. Biochem. Physiol. 1982, 71B: 367-372). […] In vitro adenosine kinase activity can be measured using any of the standard procedures well known in the art. By way of example, cells containing adenosine kinase, such as IMR-32 human neuroblastoma cells, are cultured in the presence and absence of an inhibitor. Inhibition is measured as the ability to inhibit phosphorylation of endogenous or externally applied ^14 C-adenosine by these cells. The cells can be intact or broken. The specificity of adenosine kinase inhibitory activity is determined by studying the effects of inhibitors on adenosine A1 and A2α receptor binding, adenosine deaminase activity and adenosine transport. Numerous inhibitor compounds of the present invention were tested in vitro and found to inhibit adenosine kinase activity.
`CCCCCc1c(-c2ccc(N(C)C)cc2)nc2ncnc(N)c2c1-c1ccc(F)c(Br)c1` [Example 1, 4-amino-5-(3-bromo-4-fluorophenyl)-6-pentyl-7-(4-(dimethylamino)phenyl)pyrido[2,3-d]pyrimidine]: the IC50 was found to be 80 nM.

For `CCc1c(-c2cccs2)nc2ncnc(N)c2c1-c1cccc(Br)c1` [Example 4, 4-amino-5-(3-bromophenyl)-6-ethyl-7-(thiophen-2-yl)pyrido[2,3-d]pyrimidine], the IC50 was 3 nM.

For the molecule `COc1ccc(-c2c(-c3cccs3)nc3ncnc(N)c3c2-c2cccc(Br)c2)cc1OC` [Example 6, 4-amino-5-(3-bromophenyl)-6-(3,4-dimethoxyphenyl)-7-(thiophen-2-yl)pyrido[2,3-d]pyrimidine], the half-maximal inhibitory concentration (IC50) came out at 1 nM.

For `CCOC(=O)Cc1c(-c2cccs2)nc2ncnc(N)c2c1-c1cccc(Br)c1` [Example 8, 4-amino-5-(3-bromophenyl)-6-ethoxycarbonylmethyl-7-(thiophen-2-yl)pyrido[2,3-d]pyrimidine hydrochloride], the IC50 was 3 nM.

Consider `COc1cccc(Cc2c(-c3cccs3)nc3ncnc(N)c3c2-c2cccc(Br)c2)c1` [Example 9, 4-amino-5-(3-bromophenyl)-6-(3-methoxyphenylmethyl)-7-(thiophen-2-yl)pyrido[2,3-d]pyrimidine hydrochloride], for which the IC50 came out at 23 nM.

Regarding `COc1ccc(-c2c(-c3cccs3)nc3ncnc(N)c3c2-c2cc(Br)cs2)cc1OC` [Example 11, 4-amino-5-(4-bromothiophen-2-y)-6-(3,4-dimethoxyphenyl)-7-(thiophen-2-yl)pyrido[2,3-d]pyrimidine hydrochloride], the 50% inhibitory concentration (IC50) is 0.3 nM.

Take `COc1ccc(-c2c(-c3cccs3)nc3ncnc(N)c3c2-c2cccc(Cl)c2)cc1OC` [Example 12, 4-amino-5-(3-chlorophenyl)-6-(3,4-dimethoxyphenyl)-7-(thiophen-2-yl)pyrido[2,3-d]pyrimidine hydrochloride]: the half-maximal inhibitory concentration (IC50) is 1 nM.

Consider `COCCN(C)c1ccc(-c2nc3ncnc(N)c3c(-c3cc(Br)cs3)c2-c2ccc(OC)c(OC)c2)cc1.Cl` [Example 19, 4-amino-5-(4-bromothiophen-2-yl)-6-(3,4-dimethoxyphenyl)-7-(4-(N-methyl-N-(2-methoxyethyl)amino)phenyl)pyrido [2,3-d]pyrimidine hydrochloride], for which the IC50 worked out at 0.1 nM.

Regarding `CC(C)c1ccc(-c2c(-c3ccc(N(C)C)cc3)nc3ncnc(N)c3c2-c2ccc(C(C)C)cc2)cc1` [Example 25, 4-amino-5,6-(bis-4-(2-propyl)phenyl)-7-(4-dimethylaminophenyl)pyrido[2.3-d]pyrimidine], the 50% inhibitory concentration (IC50) stood at 4 nM.

Regarding `COCCN(C)c1ccc(-c2nc3ncnc(N)c3c(-c3ccccc3)c2-c2ccccc2)cc1` [Example 26, 4-amino-5-phenyl-6-phenyl-7-(4-(N-methyl-N-(2-methoxyethyl)amino)phenyl)pyrido[2,3-d]pyrimidine hydrochloride], the IC50 was 5 nM.

With `CN(C)c1ccc(-c2nc3ncnc(N)c3c(-c3ccccc3)c2-c2ccccc2)cc1.Cl.Cl` [Example 27, 4-amino-5,6-diphenyl-7-(4-dimethylaminophenyl)pyrido [2,3-d]pyrimidine dihydrochloride], the IC50 was 9 nM.

As to `Nc1ncnc2nc(-c3ccc(N4CCOCC4)nc3)c(-c3ccc(F)cc3)c(-c3cccc(Br)c3)c12` [Example 39, 4-amino-5-(3-bromophenyl)-6-(4-fluorophenyl)-7-(6-morpholinyl-3-pyridinyl)pyrido[2,3-d]pyrimidine hydrochloride], the IC50 was 5 nM.

Take `Nc1ncnc2nc(-c3ccc(N4CCOCC4)nc3)c(-c3ccccc3)c(-c3ccccc3)c12` [Example 40, 4-amino-5-phenyl-6-phenyl-7-(6-morpholinyl-3-pyridinyl)pyrido [2,3-d]pyrimidine hydrochloride]: the IC50 worked out at 3 nM.

Take `Nc1ncnc2nc(-c3ccc(N4CCOCC4)nc3)c(-c3ccccc3)c(-c3cccc(Br)c3)c12` [Example 41, 4-amino-5-(3-bromophenyl)-6-phenyl-7-(6-morpholinyl-3-pyridinyl)pyrido [2,3-d]pyrimidine hydrochloride]: the IC50 was found to be 2 nM.

Source of the values: patent US6030969A, “5,6,7-trisubstituted-4-aminopyrido[2,3-D] pyrimidine compounds” (Abbott Laboratories, priority 1998, dated 2000).
